Source: ChEMBL document CHEMBL1137310, “Stereoselective chemoenzymatic synthesis of the four stereoisomers of l-2-(2-carboxycyclobutyl)glycine and pharmacological characterization at human excitatory amino acid transporter subtypes 1, 2, and 3” (J Med Chem, 2006)
pKi: −log10 of the molar value.

Tests used:
Format in all cases: functional, cell-based
[1] = molecular target: Excitatory amino acid transporter 2 (Homo sapiens, UniProt P43004); test: Inhibition of human EAAT2 expressed in HEK293 cells by FLIPR membrane potential assay
Excitatory amino acid transporter 2, sequence (P43004 whole entry): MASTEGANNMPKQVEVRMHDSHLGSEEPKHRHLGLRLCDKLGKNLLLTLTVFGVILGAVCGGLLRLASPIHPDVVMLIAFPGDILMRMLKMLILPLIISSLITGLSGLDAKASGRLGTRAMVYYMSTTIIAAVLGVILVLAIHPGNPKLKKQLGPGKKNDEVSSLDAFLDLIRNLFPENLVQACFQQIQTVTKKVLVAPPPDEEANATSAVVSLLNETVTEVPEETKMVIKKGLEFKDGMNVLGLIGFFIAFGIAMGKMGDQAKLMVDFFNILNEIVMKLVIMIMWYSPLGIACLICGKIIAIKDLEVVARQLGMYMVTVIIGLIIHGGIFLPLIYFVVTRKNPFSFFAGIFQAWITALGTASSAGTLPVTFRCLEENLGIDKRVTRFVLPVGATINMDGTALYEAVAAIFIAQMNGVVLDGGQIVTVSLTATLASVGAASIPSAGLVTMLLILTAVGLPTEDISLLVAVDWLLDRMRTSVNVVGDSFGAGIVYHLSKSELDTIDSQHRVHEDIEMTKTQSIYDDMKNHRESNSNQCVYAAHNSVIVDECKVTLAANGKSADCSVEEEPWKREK

[2] = molecular target: T1, Excitatory amino acid transporter 3 (Homo sapiens, UniProt P43005); test: Inhibition of human EAAT3 expressed in HEK293 cells by FLIPR membrane potential assay
T1 sequence (P43005 whole entry): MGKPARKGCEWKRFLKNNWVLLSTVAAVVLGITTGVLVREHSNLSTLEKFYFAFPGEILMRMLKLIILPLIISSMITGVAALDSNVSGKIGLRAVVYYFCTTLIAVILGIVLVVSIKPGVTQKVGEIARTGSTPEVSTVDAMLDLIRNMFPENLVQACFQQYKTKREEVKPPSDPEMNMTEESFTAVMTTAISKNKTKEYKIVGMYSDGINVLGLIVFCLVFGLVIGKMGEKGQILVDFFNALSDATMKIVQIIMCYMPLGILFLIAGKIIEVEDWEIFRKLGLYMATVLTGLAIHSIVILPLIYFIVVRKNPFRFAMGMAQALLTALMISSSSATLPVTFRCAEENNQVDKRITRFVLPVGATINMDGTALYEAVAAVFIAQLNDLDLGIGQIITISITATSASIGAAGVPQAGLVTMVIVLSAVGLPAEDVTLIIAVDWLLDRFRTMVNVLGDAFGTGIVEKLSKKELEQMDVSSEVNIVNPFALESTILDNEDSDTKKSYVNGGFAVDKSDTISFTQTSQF

[3] = molecular target: Excitatory amino acid transporter 1 (Homo sapiens, UniProt P43003); test: Inhibition of human EAAT1 expressed in HEK293 cells by FLIPR membrane potential assay
Excitatory amino acid transporter 1, sequence (P43003 whole entry): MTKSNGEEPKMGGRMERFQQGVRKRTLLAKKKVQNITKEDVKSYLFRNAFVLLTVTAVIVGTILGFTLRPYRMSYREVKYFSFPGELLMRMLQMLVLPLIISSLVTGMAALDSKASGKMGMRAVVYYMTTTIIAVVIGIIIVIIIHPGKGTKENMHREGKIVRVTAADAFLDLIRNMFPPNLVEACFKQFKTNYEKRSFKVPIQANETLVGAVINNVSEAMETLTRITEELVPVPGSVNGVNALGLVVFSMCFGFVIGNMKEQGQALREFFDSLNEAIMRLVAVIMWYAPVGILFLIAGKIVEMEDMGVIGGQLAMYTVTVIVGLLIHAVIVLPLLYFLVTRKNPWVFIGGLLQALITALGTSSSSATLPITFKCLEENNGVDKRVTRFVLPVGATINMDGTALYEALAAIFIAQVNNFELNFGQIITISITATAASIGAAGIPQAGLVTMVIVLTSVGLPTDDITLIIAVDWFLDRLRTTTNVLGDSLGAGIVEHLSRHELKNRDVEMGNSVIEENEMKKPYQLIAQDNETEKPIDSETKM

Row | pKi [1] | pKi [2] | pKi [3] | Structure (SMILES)
1 | 4.66 | 4.31 |  | N[C@H](C(=O)O)[C@@H]1CC[C@H]1C(=O)O
2 | 5.18 | 5.00 | 3.70 | N[C@H](C(=O)O)[C@@H]1CC[C@@H]1C(=O)O
